Columns and labels:
[1] = molecular target: Plasmepsin-2 (PM-2; Plm II) (Plasmodium falciparum (isolate HB3), UniProt P46925); assay: Plasmepsin-2 enzyme inhibition assay; format: biochemical; conditions: Table 13; read-out: PM-2 IC50
Description: Plasmepsin-2 (PM-2; Plm II) and Plasmepsin (PM-4; Plm IV) expression and purification was performed following the published protocols (Istvan E S and Goldberg D E, 2005). The final purified protein was activated by diluting the protein to 0.3 mg/mL in activating buffer (0.1 M citrate pH 4.5, 0.1% Tween-20, 50 mM dithiothreitol) and incubated at room temperature for 40 min, then the activated enzyme was diluted in assay buffer (50 mM sodium acetate pH 4.7, 0.01% Tween-20). The enzymatic inhibition reaction was performed in 384 well plates with a total volume of 20 μl. 10 μl of diluted PM-2 or PM-4 enzyme was added to the 384-well plate except blank wells (blank wells add 10 μL of assay buffer) and 20 nL of serials of diluted 1000× compounds were added to the wells with 520 Echo® Liquid Handling System (Labcyte Inc.). 10 μL PM-2 peptide substrate (AnaSpec, Cat#, 62050) with assay buffer was then added to final concentration of 20 μM to start the reaction. After incubation the reaction at room temperature for 60 min, the fluorescence intensity at Ex/Em=360 nm/535 nm was measured using EnVision multilabel plate reader (Perkin-Elmer). The IC50 values were obtained using Graph Pad Prism 4 and are reported in Tables 8 and 9 below as PM-2 IC50 values.

[2] = tested on: Plasmodium falciparum 3D7 (CQ-sensitive); assay: In vitro antimalarial assay (malaria SYBR Green I-based fluorescence, MSF), 3D7; format: cell-based; conditions: for inhibition of growth at 1 µM: 3D7, 72 h, read-out: 3D7 % inh @ 1 μM; for IC50: 3D7, read-out: 3D7 IC50 (μM), Table 13
Outline: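 Asynchronous P. falciparum 3D7 cultures (0.5% parasitemia, 2% hematocrit) were exposed to serially diluted compounds, in quadruplicate. Growth was then quantified by SYBR Green I fluorescence after adding lysis buffer containing 0.2 μL/mL dye.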

recombinant human BACE1 = recombinant human BACE1 (Homo sapiens, UniProt P56817); assay: β-Secretase (BACE1) enzyme inhibition FRET assay; format: biochemical; conditions: Table 13; read-out: BACE1 IC50
Description: The enzymatic inhibition activity assays were determined using the fluorescence resonance energy transfer (FRET) assay. The assays were performed in a 384-well plate format. […] CatD and CatE were activated by incubation in assay buffer (0.1 M NaOAc, 0.2 M NaCl, pH 3.5) at room temperature for 30 min. Subsequently, the rhBACE-1 substrate (R&D Systems, catalog# ES004), the Cathepsin D and Cathepsin E substrate (R&D Systems, Catalog # ES001) were added accordingly to final concentration 20 μM to initiate the reaction. After 60 min incubation at room temperature, the time-resolved fluorescence at Ex/Em=360 nm/460 nm was measured on an EnVision multilabel plate reader (Perkin-Elmer). The analytical software, GraphPad Prism 5.0 (GraphPad Software, Inc., USA) was used to generate IC50 values via non-linear regression analysis, which are reported in Tables 8-13 below as BACE1 IC50 values.

Sequence of Plasmepsin-2 (PM-2; Plm II) (P46925 125-453 limits assumed): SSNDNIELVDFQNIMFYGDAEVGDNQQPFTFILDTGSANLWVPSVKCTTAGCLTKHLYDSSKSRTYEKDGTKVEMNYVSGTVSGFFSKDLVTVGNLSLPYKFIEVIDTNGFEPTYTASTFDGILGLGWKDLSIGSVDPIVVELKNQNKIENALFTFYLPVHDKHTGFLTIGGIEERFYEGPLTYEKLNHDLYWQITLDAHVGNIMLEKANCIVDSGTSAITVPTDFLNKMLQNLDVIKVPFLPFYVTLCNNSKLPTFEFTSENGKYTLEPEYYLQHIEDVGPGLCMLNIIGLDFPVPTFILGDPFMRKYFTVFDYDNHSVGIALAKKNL
Sequence of recombinant human BACE1 (P56817 46-501 limits assumed): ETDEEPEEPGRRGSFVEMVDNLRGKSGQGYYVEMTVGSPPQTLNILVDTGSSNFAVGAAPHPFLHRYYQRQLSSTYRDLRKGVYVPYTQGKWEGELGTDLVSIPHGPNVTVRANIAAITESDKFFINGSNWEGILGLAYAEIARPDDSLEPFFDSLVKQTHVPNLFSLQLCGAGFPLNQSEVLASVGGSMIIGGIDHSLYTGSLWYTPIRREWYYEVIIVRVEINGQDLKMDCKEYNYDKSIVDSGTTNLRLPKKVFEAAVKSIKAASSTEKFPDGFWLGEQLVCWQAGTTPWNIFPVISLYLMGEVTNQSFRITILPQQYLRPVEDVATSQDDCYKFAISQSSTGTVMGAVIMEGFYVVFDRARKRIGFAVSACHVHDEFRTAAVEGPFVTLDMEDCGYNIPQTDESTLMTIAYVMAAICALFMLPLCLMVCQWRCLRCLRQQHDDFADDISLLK

SMILES: COc1ccc(C2(c3ccc(OC)cc3)NC(=N)N(Cc3ccccc3C#N)C2=O)cc1 [Example 305, 2-{[2-imino-4,4-bis(4-methoxyphenyl)-5-oxoimidazolidin-1-yl]methyl}benzonitrile]
- IC50 [1]: 9.3 nM
- inhibition of growth at 1 µM [2]: 81%
- IC50 (recombinant human BACE1): 6700 nM

SMILES: COc1ccc(C2(c3ccc(OC)cc3)NC(=N)N(CC3CCN(C)CC3)C2=O)cc1 [Example 308, 2-imino-5,5-bis(4-methoxyphenyl)-3-[(1-methylpiperidin-4-yl)methyl]imidazolidin-4-one]
- IC50 [1]: 75.4 nM
- IC50 [2]: 0.677 µM
- IC50 (recombinant human BACE1): > 10000 nM

SMILES: COc1ccc(C2(c3ccc(OC)cc3)NC(=N)N(C3CCN(C(C)=O)CC3)C2=O)cc1 [Example 310, 3-(1-acetylpiperidin-4-yl)-2-imino-5,5-bis(4-methoxyphenyl)imidazolidin-4-one]
- IC50 [1]: 5.84 nM
- inhibition of growth at 1 µM [2]: 72%
- IC50 (recombinant human BACE1): ~2600 nM

SMILES: COc1ccc(C2(c3ccc(OC)cc3)NC(=N)N(C3CCN(C(=O)c4ccccc4)CC3)C2=O)cc1 [Example 311, 3-(1-benzoylpiperidin-4-yl)-2-imino-5,5-bis(4-methoxyphenyl)imidazolidin-4-one]
- IC50 [1]: 2 nM
- inhibition of growth at 1 µM [2]: 81%
- IC50 (recombinant human BACE1): ~6800 nM

SMILES: COc1ccc(C2(c3ccc(OC)cc3)NC(=N)N(CC3CCN(C(=O)OC(C)(C)C)CC3)C2=O)cc1 [Example 313, tert-butyl 4-{[2-imino-4,4-bis(4-methoxyphenyl)-5-oxoimidazolidin-1-yl]methyl}piperidine-1-carboxylate]
- IC50 [1]: 11 nM
- inhibition of growth at 1 µM [2]: 27%
- IC50 (recombinant human BACE1): ~2200 nM

SMILES: COc1ccc(C2(c3ccc(OC)cc3)NC(=N)N(C3CCN(C(=O)CCN(C)C)CC3)C2=O)cc1 [Example 322, 3-{1-[3-(dimethylamino)propanoyl]piperidin-4-yl}-2-imino-5,5-bis(4-methoxyphenyl)imidazolidin-4-one]
- IC50 [1]: 20.2 nM
- inhibition of growth at 1 µM [2]: 34%
- IC50 (recombinant human BACE1): > 10000 nM

SMILES: COc1ccc(C2(c3cccnc3)NC(=N)N(C3CCOCC3)C2=O)cc1 (stereo not drawn) [Example 323, 2-imino-5-(4-methoxyphenyl)-3-(oxan-4-yl)-5-(pyridin-3-yl)imidazolidin-4-one]
- IC50 [1]: 74.3 nM
- inhibition of growth at 1 µM [2]: 31%
- IC50 (recombinant human BACE1): ~10000 nM

SMILES: COc1ccc(C2(C3CC3)NC(=N)N(C3CCOCC3)C2=O)cc1 (stereo not drawn) [Example 325, 5-cyclopropyl-2-imino-5-(4-methoxyphenyl)-3-(oxan-4-yl)imidazolidin-4-one]
- IC50 [1]: 426 nM
- IC50 [2]: 0.752 µM
- IC50 (recombinant human BACE1): > 10000 nM

SMILES: COc1ccc(C2(C3CCCCC3)NC(=N)N(C3CCOCC3)C2=O)cc1 (stereo not drawn) [Example 331, 5-cyclohexyl-2-imino-5-(4-methoxy-phenyl)-3-(oxan-4-yl)imidazolidin-4-one]
- IC50 [1]: 58.1 nM
- IC50 [2]: 0.354 µM
- IC50 (recombinant human BACE1): ~10000 nM

SMILES: COc1ccc(C2(c3ccccn3)NC(=N)N(C3CCOCC3)C2=O)cc1 (stereo not drawn) [Example 332, 2-imino-5-(4-methoxyphenyl)-3-(oxan-4-yl)-5-(pyridin-2-yl)-imidazolidin-4-one]
- IC50 [1]: 216 nM
- inhibition of growth at 1 µM [2]: 25%
- IC50 (recombinant human BACE1): > 10000 nM

SMILES: COc1ccc(C2(c3cncnc3)NC(=N)N(C3CCOCC3)C2=O)cc1 (stereo not drawn) [Example 333, 2-imino-5-(4-methoxyphenyl)-3-(oxan-4-yl)-5-(pyrimidin-5-yl)imidazolidin-4-one]
- IC50 [1]: 639 nM
- inhibition of growth at 1 µM [2]: 9%
- IC50 (recombinant human BACE1): > 10000 nM

SMILES: COc1ccc(C2(c3ccncc3)NC(=N)N(C3CCOCC3)C2=O)cc1 (stereo not drawn) [Example 334, 2-imino-5-(4-methoxyphenyl)-3-(oxan-4-yl)-5-(pyridin-4-yl)-imidazolidin-4-one]
- IC50 [1]: 85.9 nM
- inhibition of growth at 1 µM [2]: 14%
- IC50 (recombinant human BACE1): > 10000 nM

SMILES: COc1ccc(C2(C3CCCC3)NC(=N)N(C3CCOCC3)C2=O)cc1 (stereo not drawn) [Example 335, 5-cyclopentyl-2-imino-5-(4-methoxy-phenyl)-3-(oxan-4-yl)imidazolidin-4-one]
- IC50 [1]: 90.7 nM
- IC50 [2]: 0.377 µM
- IC50 (recombinant human BACE1): > 10000 nM
